Measurements published in ChEMBL document CHEMBL6177939, “The role of silicon in drug discovery: a review” (RSC Med Chem, 2024).
Values after ≈ are worked out from the molar mass of the structure shown. Each block holds one compound with its values, some of them ahead of it.

Legend:
Plutella xylostella = experiment: Toxicity in Plutella xylostella assessed as lethal dose; assay type: organism-based
Mythimna separata = experiment: Toxicity in Mythimna separata assessed as lethal dose; assay type: organism-based
MCF7 [1] = experiment: Cytotoxicity against human MCF7 cells assessed as reduction in cell viability by XTT assay; assay type: functional, cell-based
Pseudomonas aeruginosa [2] = experiment: Antibacterial activity against Pseudomonas aeruginosa ATCC 27853 assessed as reduction in bacterial growth incubated for 24 hrs by CLSI micro-dilution method; assay type: functional
Penicillium chrysogenum = experiment: Antifungal activity against Penicillium chrysogenum ATCC 11709 assessed as reduction in fungal growth incubated for 24 hrs by CLSI micro-dilution method; assay type: functional
HepG2 [3] = experiment: Cytotoxicity against human HepG2 cells assessed as reduction in cell viability by XTT assay; assay type: functional, cell-based
Fusarium solani = experiment: Antifungal activity against Fusarium solani ATCC 20327 assessed as reduction in fungal growth incubated for 24 hrs by CLSI micro-dilution method; assay type: functional
Bacillus sp. = experiment: Antibacterial activity against Bacillus sp. ATCC 19986 assessed as reduction in bacterial growth incubated for 24 hrs by CLSI micro-dilution method; assay type: functional; conditions: Bacillus sp. (in: firmicutes)
Aspergillus niger = experiment: Antifungal activity against Aspergillus niger ATCC 16888 assessed as reduction in fungal growth incubated for 24 hrs by broth micro-dilution method; assay type: functional
P388 = experiment: Antiproliferative activity against mouse P388 cells; assay type: functional, cell-based
Giardia intestinalis = experiment: Antiparasitic activity against Giardia intestinalis Portland 1 assessed as reduction in parasite growth incubated for 48 hrs by MTT assay; assay type: functional, organism-based; conditions: Giardia duodenalis, Portland 1, 48 h
Entamoeba histolytica = experiment: Antiparasitic activity against Entamoeba histolytica HM-1:IMSS assessed as reduction in parasite growth incubated for 48 hrs by MTT assay; assay type: functional, organism-based
Acetylcholinesterase = Acetylcholinesterase (Homo sapiens, UniProt P22303); experiment: Inhibition of AChE (unknown origin) using acetylthiocholine iodide as substrate by Ellman's method
COLO 205 = experiment: Antiproliferative activity against human COLO 205 cells assessed as reduction in cell growth incubated for 24 hrs by MTT assay; assay type: functional, cell-based; conditions: COLO 205, 24 h
COLO 320 = experiment: Antiproliferative activity against human COLO 320 cells assessed as reduction in cell growth incubated for 24 hrs by MTT assay; assay type: functional, cell-based; conditions: COLO 320, 24 h
A2780 = experiment: Antiproliferative activity against human A2780 cells assessed as reduction in cell growth incubated for 24 hrs by MTT assay; assay type: functional, cell-based; conditions: A2780, 24 h
HepG2 [4] = experiment: Antiproliferative activity against human HepG2 cells; assay type: functional, cell-based
A549 = experiment: Antiproliferative activity against human A549 cells; assay type: functional, cell-based
Staphylococcus aureus = experiment: Antibacterial activity against Staphylococcus aureus; assay type: functional
Pseudomonas aeruginosa [5] = experiment: Antibacterial activity against Pseudomonas aeruginosa; assay type: functional
Escherichia coli = experiment: Antibacterial activity against Escherichia coli; assay type: functional
T47D = experiment: Growth inhibition of human T47D cells measured for 48 hrs by SRB assay; assay type: functional
WiDr = experiment: Growth inhibition of human WiDr cells measured for 48 hrs by SRB assay; assay type: functional
HeLa = experiment: Growth inhibition of human HeLa cells measured for 48 hrs by SRB assay; assay type: functional
Aedes aegypti = experiment: […] activity against Aedes aegypti assessed as protection time at 0.5 microg/cm; assay type: functional
Histone deacetylase 2 = Histone deacetylase 2 (Homo sapiens, UniProt Q92769)
Histone deacetylase 4 = Histone deacetylase 4 (Homo sapiens, UniProt P56524); experiment: Inhibition of human recombinant HDAC4 using Ac-Leu-Gly-Lys(Tfa)-AMC as substrate incubated for 30 mins by EnSpire plate reader analysis
Histone deacetylase 5 = Histone deacetylase 5 (Homo sapiens, UniProt Q9UQL6); experiment: Inhibition of human recombinant HDAC5 using Ac-Leu-Gly-Lys(Tfa)-AMC as substrate incubated for 30 mins by EnSpire plate reader analysis
Histone deacetylase 1 = Histone deacetylase 1 (Homo sapiens, UniProt Q13547); experiment: Inhibition of human recombinant HDAC1 using Ac-Leu-Gly-Lys(Ac)-AMC as substrate incubated for 30 mins by EnSpire plate reader analysis
[6] = target: Protein deacetylase HDAC6 (Homo sapiens, UniProt Q9UBN7); experiment: Inhibition of human recombinant HDAC6 using Ac-Leu-Gly-Lys(Ac)-AMC as substrate incubated for 30 mins by EnSpire plate reader analysis
[7] = target: Angiotensin-converting enzyme (Homo sapiens, UniProt P12821); experiment: Inhibition of ACE (unknown origin) using N-[3-(2-furyl)-acryloyl]- L -phenylalanylglycylglycin as substrate incubated for 5 mins
HT-1080 = experiment: Cytotoxicity against human HT-1080 cells assessed as reduction in cell growth by MTT assay; assay type: functional, cell-based
MG-22A = experiment: Cytotoxicity against mouse MG-22A cells assessed as reduction in cell growth by MTT assay; assay type: functional, cell-based
BJAB = experiment: Cytotoxicity against human BJAB cells assessed as lethal dose measured after 48 hrs; assay type: functional; conditions: read-out: LD50 (the source's name)
HT-29 = experiment: Antiproliferative activity against human HT-29 cells assessed as reduction in cell growth incubated for 24 hrs; assay type: functional, cell-based; conditions: HT-29, 24 h
MCF7 [8] = experiment: Antiproliferative activity against human MCF7 cells assessed as reduction in cell growth incubated for 24 hrs; assay type: functional, cell-based; conditions: MCF7, 24 h
NCI-H460 = experiment: Antiproliferative activity against human NCI-H460 cells assessed as reduction in cell growth incubated for 24 hrs; assay type: functional, cell-based; conditions: NCI-H460, 24 h
Caco-2 = experiment: Antiproliferative activity against human Caco-2 cells assessed as reduction in cell growth incubated for 24 hrs; assay type: functional, cell-based; conditions: Caco-2, 24 h

Chain of Acetylcholinesterase (P22303 whole entry): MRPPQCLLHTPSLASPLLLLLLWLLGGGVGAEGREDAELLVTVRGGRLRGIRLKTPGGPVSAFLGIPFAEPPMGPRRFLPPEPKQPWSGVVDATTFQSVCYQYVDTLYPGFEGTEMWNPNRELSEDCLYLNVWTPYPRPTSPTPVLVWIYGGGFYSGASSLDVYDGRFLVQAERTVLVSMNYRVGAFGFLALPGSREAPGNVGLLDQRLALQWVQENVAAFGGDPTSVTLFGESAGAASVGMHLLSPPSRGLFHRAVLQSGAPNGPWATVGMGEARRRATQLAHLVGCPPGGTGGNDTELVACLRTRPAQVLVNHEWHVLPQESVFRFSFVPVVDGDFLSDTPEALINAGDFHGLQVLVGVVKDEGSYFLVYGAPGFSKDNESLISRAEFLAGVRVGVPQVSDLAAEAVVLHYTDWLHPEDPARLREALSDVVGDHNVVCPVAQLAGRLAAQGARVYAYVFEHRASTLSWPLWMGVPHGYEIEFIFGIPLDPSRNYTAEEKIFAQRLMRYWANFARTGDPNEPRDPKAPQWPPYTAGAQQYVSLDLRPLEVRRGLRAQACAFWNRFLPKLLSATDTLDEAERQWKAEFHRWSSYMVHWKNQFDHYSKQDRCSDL
Chain of Angiotensin-converting enzyme (P12821 whole entry): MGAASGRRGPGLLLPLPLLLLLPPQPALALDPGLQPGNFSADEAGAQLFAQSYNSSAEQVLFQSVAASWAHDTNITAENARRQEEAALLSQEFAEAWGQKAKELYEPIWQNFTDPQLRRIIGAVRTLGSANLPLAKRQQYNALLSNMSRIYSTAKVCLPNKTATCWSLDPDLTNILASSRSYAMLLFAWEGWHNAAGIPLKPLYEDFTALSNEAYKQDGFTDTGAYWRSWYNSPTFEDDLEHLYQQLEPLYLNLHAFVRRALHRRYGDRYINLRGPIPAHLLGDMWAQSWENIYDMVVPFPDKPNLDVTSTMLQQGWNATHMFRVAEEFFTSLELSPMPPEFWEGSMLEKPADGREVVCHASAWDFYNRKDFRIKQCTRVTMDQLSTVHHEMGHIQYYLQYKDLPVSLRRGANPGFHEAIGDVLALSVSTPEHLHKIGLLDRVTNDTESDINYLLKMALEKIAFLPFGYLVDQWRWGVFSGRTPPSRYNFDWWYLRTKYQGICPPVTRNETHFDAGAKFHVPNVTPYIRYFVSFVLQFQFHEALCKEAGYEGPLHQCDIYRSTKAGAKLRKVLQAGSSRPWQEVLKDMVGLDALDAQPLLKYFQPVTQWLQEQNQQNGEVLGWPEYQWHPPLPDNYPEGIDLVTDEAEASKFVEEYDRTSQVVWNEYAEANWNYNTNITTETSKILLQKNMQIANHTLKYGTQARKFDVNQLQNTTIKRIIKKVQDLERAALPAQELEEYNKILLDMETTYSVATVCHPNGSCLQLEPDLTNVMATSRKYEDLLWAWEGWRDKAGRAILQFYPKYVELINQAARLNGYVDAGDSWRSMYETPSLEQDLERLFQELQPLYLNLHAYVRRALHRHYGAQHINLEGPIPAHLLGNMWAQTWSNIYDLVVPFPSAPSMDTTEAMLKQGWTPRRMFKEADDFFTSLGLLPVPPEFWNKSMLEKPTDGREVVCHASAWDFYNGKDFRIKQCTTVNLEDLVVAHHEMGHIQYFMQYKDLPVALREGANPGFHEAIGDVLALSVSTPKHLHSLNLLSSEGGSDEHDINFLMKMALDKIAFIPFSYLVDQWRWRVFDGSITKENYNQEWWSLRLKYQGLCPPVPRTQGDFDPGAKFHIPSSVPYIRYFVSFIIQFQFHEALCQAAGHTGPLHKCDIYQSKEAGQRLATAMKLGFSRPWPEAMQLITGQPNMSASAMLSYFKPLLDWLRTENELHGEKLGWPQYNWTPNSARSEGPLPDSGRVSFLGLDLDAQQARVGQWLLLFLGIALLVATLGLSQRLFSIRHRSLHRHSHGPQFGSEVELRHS
Chain of Histone deacetylase 4 (P56524 whole entry): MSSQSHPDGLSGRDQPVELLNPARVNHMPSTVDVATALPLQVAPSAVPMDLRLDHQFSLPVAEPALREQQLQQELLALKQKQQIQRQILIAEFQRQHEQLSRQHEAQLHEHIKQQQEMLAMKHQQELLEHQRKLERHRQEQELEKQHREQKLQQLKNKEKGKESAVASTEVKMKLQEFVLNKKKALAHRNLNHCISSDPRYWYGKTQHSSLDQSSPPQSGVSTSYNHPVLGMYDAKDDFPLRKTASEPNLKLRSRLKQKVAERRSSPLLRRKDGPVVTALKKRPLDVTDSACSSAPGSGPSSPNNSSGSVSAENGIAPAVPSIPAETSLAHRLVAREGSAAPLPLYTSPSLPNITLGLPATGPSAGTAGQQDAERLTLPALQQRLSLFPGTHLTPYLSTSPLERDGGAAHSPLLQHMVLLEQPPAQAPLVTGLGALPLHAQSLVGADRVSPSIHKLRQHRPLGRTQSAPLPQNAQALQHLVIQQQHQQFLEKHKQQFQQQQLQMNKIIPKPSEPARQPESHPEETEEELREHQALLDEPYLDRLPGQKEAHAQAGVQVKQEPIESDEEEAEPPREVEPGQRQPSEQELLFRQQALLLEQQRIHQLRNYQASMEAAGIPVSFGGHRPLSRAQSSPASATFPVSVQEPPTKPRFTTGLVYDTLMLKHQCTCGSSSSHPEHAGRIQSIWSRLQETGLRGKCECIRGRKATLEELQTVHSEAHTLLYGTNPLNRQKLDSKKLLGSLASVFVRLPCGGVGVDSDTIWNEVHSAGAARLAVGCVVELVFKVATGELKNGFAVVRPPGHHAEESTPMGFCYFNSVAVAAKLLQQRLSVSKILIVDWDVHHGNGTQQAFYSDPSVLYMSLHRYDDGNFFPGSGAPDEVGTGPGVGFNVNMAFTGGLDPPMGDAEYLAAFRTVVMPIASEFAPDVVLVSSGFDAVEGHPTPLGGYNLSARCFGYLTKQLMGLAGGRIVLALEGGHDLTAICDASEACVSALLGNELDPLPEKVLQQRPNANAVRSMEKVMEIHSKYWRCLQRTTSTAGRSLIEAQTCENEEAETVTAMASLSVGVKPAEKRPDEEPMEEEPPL
Chain of Protein deacetylase HDAC6 (Q9UBN7 whole entry): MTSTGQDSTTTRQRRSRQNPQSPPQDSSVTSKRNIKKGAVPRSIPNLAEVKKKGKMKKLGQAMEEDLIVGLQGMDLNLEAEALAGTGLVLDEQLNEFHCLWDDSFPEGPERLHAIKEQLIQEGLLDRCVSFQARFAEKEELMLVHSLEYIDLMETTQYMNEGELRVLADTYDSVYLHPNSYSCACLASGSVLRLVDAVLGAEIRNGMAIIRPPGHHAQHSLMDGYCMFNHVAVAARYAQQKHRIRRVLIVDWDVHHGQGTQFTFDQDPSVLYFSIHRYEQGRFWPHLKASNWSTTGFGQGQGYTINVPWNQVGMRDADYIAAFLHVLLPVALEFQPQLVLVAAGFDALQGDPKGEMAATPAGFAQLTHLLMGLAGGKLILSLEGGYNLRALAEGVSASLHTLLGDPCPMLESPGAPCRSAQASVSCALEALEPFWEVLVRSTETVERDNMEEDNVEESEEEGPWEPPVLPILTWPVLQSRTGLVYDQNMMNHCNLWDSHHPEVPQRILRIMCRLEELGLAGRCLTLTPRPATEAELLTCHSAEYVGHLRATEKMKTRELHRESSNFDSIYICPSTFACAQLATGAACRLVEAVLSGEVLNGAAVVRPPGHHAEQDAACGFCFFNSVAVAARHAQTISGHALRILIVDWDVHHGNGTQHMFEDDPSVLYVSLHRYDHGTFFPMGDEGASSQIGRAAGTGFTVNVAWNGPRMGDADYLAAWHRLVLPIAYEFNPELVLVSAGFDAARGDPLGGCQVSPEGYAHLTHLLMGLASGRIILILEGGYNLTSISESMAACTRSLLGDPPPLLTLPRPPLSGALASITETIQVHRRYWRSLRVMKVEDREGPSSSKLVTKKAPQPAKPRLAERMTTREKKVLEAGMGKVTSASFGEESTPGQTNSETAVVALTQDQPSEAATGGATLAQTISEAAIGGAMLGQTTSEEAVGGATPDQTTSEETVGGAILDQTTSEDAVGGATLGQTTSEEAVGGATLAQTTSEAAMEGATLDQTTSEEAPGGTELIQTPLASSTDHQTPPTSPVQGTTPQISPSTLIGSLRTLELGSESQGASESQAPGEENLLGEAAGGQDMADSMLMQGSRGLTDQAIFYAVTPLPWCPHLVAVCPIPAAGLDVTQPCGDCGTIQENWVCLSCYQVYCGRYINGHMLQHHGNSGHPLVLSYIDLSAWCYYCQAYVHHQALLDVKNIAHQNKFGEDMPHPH
Chain of Histone deacetylase 2 (Q92769 whole entry): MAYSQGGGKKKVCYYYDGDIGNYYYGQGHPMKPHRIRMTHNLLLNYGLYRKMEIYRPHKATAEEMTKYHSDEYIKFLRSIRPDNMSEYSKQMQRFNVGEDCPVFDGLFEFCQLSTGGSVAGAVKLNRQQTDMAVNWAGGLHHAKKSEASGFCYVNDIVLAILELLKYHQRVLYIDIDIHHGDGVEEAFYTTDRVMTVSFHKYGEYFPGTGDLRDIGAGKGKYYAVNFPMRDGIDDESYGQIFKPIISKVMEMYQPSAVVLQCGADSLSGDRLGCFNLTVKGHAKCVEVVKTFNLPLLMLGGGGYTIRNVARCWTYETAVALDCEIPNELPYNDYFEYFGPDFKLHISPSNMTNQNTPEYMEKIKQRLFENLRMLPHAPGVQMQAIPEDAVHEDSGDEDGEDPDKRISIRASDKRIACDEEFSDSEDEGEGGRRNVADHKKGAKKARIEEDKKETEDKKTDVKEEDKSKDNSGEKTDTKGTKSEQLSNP

SMILES: CCS(=O)(=O)c1cccnc1-c1nc2cc(S(=O)(=O)C(F)(F)F)ccc2o1
LC50 (Plutella xylostella): 0.21 µg/mL (≈ 0.5 µM)
LC50 (Mythimna separata): 4.68 µg/mL (≈ 11.1 µM)

MIC (Pseudomonas aeruginosa [2]): 1.2 µg/mL (≈ 5.16 µM)
MIC (Penicillium chrysogenum): 1.2 µg/mL (≈ 5.16 µM)
MIC (Fusarium solani): 1.2 µg/mL (≈ 5.16 µM)
MIC (Bacillus sp.): 1.2 µg/mL (≈ 5.16 µM)
MIC (Aspergillus niger): 1.2 µg/mL (≈ 5.16 µM)
SMILES: NCCC[Si-]123OCC[N+]1(CCO2)CCO3 (stereo not given)
IC50 (MCF7 [1]): 65 µg/mL (≈ 280 µM)
IC50 (HepG2 [3]): 150 µg/mL (≈ 646 µM)

SMILES: C=C1C[C@](OC)([C@H](O)C(=O)N[C@H]2OCO[C@H]3[C@@H]2O[C@H](C[C@H](O)CO)C(C)(C)[C@@H]3OC)O[C@H](C)[C@@H]1C [MYCALAMIDE A]
IC50 (P388): 0.1 ng/mL (≈ 0.000199 µM)

SMILES: C(=N\CCNCCC[Si-]123OCC[N+]1(CCO2)CCO3)/c1ccc2ccc3cccc4ccc1c2c34 (stereo not given)
IC50 (Giardia intestinalis): 0.56 µM
IC50 (Entamoeba histolytica): 56.9 µM

SMILES: C[Si]1(Cl)C=C/C(=N\c2ccccc2)C1=P(c1ccccc1)(c1ccccc1)c1ccccc1 (stereo not given)
IC50 (Acetylcholinesterase): 0.113 µM

SMILES: C[Si](C)(C)c1cc(C(F)(C(F)(F)F)C(F)(F)F)cc(Br)c1NC(=O)c1cccc(NC(=O)c2ccccc2)c1
LC50 (Mythimna separata): 2 µg/mL (≈ 3.15 µM)

IC50 (COLO 205): 0.0015 µM
IC50 (COLO 320): 0.0015 µM
IC50 (A2780): 0.0018 µM
SMILES: CC[C@@]1(O)C(=O)OCc2c1cc1n(c2=O)Cc2c-1nc1ccccc1c2CC[Si](C)(C)C [COSITECAN]

SMILES: CCS(=O)(=O)c1cc([Si](C)(C)C)cnc1-c1nc2cc(S(=O)(=O)C(F)(F)F)ccc2o1
LC50 (Plutella xylostella): 0.3 µg/mL (≈ 0.609 µM)
LC50 (Mythimna separata): 4.8 µg/mL (≈ 9.74 µM)

EC50 (HepG2 [4]): 32.5 µM
EC50 (A549): 42.8 µM
SMILES: COc1ccc([Si](C)(C)[C@@H]2[C@@H](CCn3cc(CCO)nn3)O[C@]3(C(=O)N4c5c(ccc(OC)c53)C(C)=CC4(C)C)[C@H]2C)cc1

SMILES: C[Si]1(Cl)C=CC(=O)C1=P(c1ccccc1)(c1ccccc1)c1ccccc1 (stereo not given)
IC50 (Acetylcholinesterase): 0.113 µM

MIC (Staphylococcus aureus): 0.195 µg/mL (≈ 0.325 µM)
MIC (Pseudomonas aeruginosa [5]): 6.3 µg/mL (≈ 10.5 µM)
MIC (Escherichia coli): 6.3 µg/mL (≈ 10.5 µM)
SMILES: CCN(CC)c1ccc(/C=N/CCC[Si](OC)(OC)OC)c(OCc2cn(CCOc3ccccc3[N+](=O)[O-])nn2)c1

GI50 (T47D): 26.6 µM
GI50 (HeLa): 24.1 µM
SMILES: CC(C)(C)[Si](Oc1ccc2oc(=O)ccc2c1)(c1ccccc1)c1ccccc1
GI50 (WiDr): 32.2 µM

SMILES: C[Si]1(C)CCN(C(=O)C2=CCCCC2)CC1
Time (Aedes aegypti): 756 min

IC50 (Histone deacetylase 2): 0.6 µM
IC50 (Histone deacetylase 4): 0.6 µM
IC50 (Histone deacetylase 5): 0.6 µM
IC50 (Histone deacetylase 1): 0.6 µM
IC50 [6]: 0.6 µM
SMILES: C[Si](O)(O)CCCCCCC(=O)Nc1ccccc1

IC50 [7]: 3.04 µM
SMILES: CC(C)CC(NC(=O)c1ccccc1)[Si](O)(O)CC(C)C(=O)N1CCC[C@H]1C(=O)O (mixture of isomers)

SMILES: CC1C[N+]23CC(C)O[Si-]2(CCCNCC/N=C/c2ccc4ccc5cccc6ccc2c4c56)(O1)OC(C)C3 (stereo not given)
IC50 (Giardia intestinalis): 44.6 µM
IC50 (Entamoeba histolytica): 1.14 µM

SMILES: CCCC[Si](CC)(CCCC)OCC[N+](C)(C)C.[I-]
IC50 (HT-1080): 3 µg/mL
IC50 (MG-22A): 1 µg/mL

SMILES: CC(C)C(C)(C)[Si](C)(C)OC[C@H]1C[C@@H](n2cc(Br)c(=O)[nH]c2=O)C=C1CO
CC50 (BJAB): 9 µM

IC50 (HT-29): 3.6 µM
IC50 (MCF7 [8]): 3.5 µM
IC50 (NCI-H460): 3.6 µM
IC50 (Caco-2): 40.1 µM
SMILES: CC(C)OC(=O)/C(=N/NC(=O)c1ccc(CO[Si](C)(C)C(C)(C)C)o1)c1ccccc1

SMILES: CC(C)(C)[Si](C)(C)OC[C@H]1C[C@@H](n2cc(Br)c(=O)[nH]c2=O)C=C1CO
CC50 (BJAB): 46 µM
